The values below come from patent US7939546B2, “Quinoline derivatives for modulating DNA methylation” (SuperGen, Inc., priority 2007, dated 2011).

The target of one data set is DNMT1 (Homo sapiens, UniProt P26358). Put plainly: Selective depletion of DNMT1 by Western blot in treated HCT116 cells. The arrangement: Protein extracts (equivalent to 100 μg) were isolated from HCT116 cells; endogenous in cells; host or cells: HCT116. The settings on record: for % DNMT1 protein level remaining at 5 µM: HCT-116, 5 μM; for % DNMT1 protein level remaining at 10 µM: HCT-116, 10 μM. Type of data set: cell-based. An excerpt: Biol. 2005, 11, 4727-41.]. For DNMT1, commercially available antibodies from Santa Cruz or New England Biolabs were used.
(In general: Immunoblotting shows a protein as a band on a membrane.)

Usually melting point stands for the temperature of the solid-liquid transition.

SMILES strings stand for the structures. Several values for one entry are separate records, joined by “and”; a condition that tells them apart may be missing. Equal values may be shown once. Where a name gives a salt, the structure may show the parent alone.

Sequence of DNMT1 (P26358 whole entry): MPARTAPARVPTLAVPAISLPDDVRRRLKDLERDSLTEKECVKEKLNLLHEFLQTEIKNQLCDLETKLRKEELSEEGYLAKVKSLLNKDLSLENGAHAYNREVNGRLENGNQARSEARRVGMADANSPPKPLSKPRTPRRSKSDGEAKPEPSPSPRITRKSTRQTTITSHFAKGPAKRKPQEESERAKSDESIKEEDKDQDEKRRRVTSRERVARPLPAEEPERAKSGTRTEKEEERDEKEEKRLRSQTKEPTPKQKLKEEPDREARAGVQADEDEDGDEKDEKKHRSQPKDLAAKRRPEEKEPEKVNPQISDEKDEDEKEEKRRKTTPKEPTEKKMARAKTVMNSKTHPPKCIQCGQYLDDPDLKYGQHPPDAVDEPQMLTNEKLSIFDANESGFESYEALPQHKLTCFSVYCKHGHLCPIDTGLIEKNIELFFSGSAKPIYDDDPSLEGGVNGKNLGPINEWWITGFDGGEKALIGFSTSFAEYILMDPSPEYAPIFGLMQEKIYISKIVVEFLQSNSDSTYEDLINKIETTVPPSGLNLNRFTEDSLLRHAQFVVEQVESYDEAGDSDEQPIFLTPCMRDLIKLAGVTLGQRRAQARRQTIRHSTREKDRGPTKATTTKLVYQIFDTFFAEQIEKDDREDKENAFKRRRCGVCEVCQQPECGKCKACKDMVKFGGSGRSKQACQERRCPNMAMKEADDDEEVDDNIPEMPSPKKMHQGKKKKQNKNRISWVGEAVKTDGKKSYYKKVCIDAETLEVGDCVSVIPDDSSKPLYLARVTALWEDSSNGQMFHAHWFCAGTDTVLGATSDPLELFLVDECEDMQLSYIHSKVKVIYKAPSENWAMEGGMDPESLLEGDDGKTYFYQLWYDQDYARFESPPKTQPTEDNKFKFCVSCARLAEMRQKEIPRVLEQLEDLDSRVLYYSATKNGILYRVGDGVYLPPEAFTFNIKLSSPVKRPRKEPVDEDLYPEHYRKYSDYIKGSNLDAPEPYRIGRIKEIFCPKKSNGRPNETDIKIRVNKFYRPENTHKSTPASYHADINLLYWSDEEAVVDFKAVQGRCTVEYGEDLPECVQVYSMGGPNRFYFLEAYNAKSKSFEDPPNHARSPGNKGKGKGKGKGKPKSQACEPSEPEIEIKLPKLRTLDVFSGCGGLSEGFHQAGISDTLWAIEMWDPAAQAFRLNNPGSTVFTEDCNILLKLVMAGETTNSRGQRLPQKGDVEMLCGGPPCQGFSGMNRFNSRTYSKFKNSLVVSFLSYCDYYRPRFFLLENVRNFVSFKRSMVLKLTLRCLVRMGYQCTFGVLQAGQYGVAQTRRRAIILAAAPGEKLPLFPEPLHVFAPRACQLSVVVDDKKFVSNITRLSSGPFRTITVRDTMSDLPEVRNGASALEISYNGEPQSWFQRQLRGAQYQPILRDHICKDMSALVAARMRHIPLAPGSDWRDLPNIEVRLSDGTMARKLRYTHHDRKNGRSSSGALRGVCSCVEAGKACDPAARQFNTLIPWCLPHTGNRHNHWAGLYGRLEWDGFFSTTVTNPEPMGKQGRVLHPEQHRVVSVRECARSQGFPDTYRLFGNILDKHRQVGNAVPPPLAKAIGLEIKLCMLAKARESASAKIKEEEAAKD

Regarding `C[n+]1ccc(Nc2cccc(NC(=O)c3ccc(Nc4ccnc5ccccc45)cc3)c2)cc1` (as salt: chloride) [Cpd. A, 1-methyl-4-(3-{[4-(4-quinolinylamino)benzoyl]amino}anilino)pyridinium chloride], the melting point is 253 to 257 °C.
Still for that read-out and setting: next, `Cc1cc(Nc2cccc(C(=O)Nc3ccc(Nc4ccnc5ccc(N(C)C)cc45)cc3)c2)nc(N)n1` (as salt: chloride) [Cpd. EE, 4-[4-({3-[(2-amino-6-methyl-4-pyrimidinyl)amino]benzoyl}amino)anilino]-6-(dimethylamino)quinolinium chloride]: more than 300 °C; `C[n+]1ccc(Nc2cccc(NC(=O)c3ccc(Nc4ccnc5ccc([N+](=O)[O-])cc45)cc3)c2)cc1` (as salt: chloride) [Cpd. F, 1-methyl-4-(3-{[4-(6-nitro-4-quinolinylamino)benzoyl]amino}anilino)pyridinium chloride]: 273 to 277 °C; `C[n+]1ccc(Nc2ccc(C(=O)Nc3ccc(Nc4ccnc5ccc(N)cc45)cc3)cc2)cc1` (as salt: chloride) [Cpd. N, 4-[4-({4-[(6-amino-4-quinolinyl)amino]anilino}carbonyl)anilino]-1-methylpyridinium chloride]: more than 300 °C.
Take `C/C(=N\N=C(N)N)c1cccc(C(=O)Nc2ccc(Nc3ccnc4ccc(N(C)C)cc34)cc2)c1` (as salt: chloride) [Cpd. QQ, 4-[4-({3-[(1E)-N-(diaminomethylene)ethanehydrazonoyl]-benzoyl}amino)anilino]-6-(dimethylamino)quinolinium chloride]: the melting point is more than 280 °C.
For `C[n+]1ccc(Nc2cccc(NC(=O)c3ccc(Nc4ccnc5cc([N+](=O)[O-])ccc45)cc3)c2)cc1` (as salt: chloride) [Cpd. R, 1-methyl-4-[3-({4-[(7-nitro-4-quinolinyl)amino]benzoyl}amino)anilino]pyridinium chloride], the melting point was 303 °C (dec.).
Still for that read-out and setting: next, `C[n+]1ccc(Nc2ccc(NC(=O)c3ccc(Nc4ccnc5ccccc45)cc3)cc2)cc1` (as salt: hydrochloride) [Cpd. B, 1-methyl-4-(4-(4-(quinolin-4-ylamino)benzamido)phenylamino)pyridinium chloride hydrochloride]: more than 300 °C; `Cc1cc(Nc2ccc(NC(=O)c3ccc(Nc4ccnc5cc(N(C)C)ccc45)cc3)cc2)nc(N)n1` (as salt: hydrochloride) [Cpd. BB, N-[4-(2-amino-6-methylpyrimidin-4-ylamino)phenyl]-4-(7-(dimethylamino)quinolin-4-ylamino)benzamide hydrochloride]: 272 to 275 °C.
On to `Cc1cc(Nc2cccc(C(=O)Nc3ccc(Nc4ccnc5ccccc45)cc3)c2)nc(N)n1` (as salt: hydrochloride) [Cpd. FF1, 3-[(2-amino-6-methyl-4-pyrimidinyl)amino]-N-[4-(4-quinolinylamino)phenyl]benzamide dihydrochloride], for which the melting point is more than 300 °C.
The same measure, in the same setting: next, `Nc1cc(Nc2cccc(C(=O)Nc3ccc(Nc4ccnc5ccccc45)cc3)c2)nc(N)n1` (as salt: hydrochloride) [Cpd. FF2, 3-[(2,6-Diamino-4-pyrimidinyl)amino]-N-[4-(4-quinolinylamino)-phenyl]benzamide dihydrochloride]: more than 300 °C; `C[n+]1ccc(Nc2ccc(NC(=O)c3ccc(Nc4ccnc5ccc([N+](=O)[O-])cc45)cc3)cc2)cc1` (as salt: hydrochloride) [Cpd. G, 1-methyl-4-(4-(4-(6-nitroquinolin-4-ylamino)benzamido)phenylamino)pyridinium chloride hydrochloride]: 183 to 187 °C; `Cc1cc(Nc2ccc(C(=O)Nc3ccc(Nc4ccnc5cc(N)ccc45)cc3)cc2)nc(N)n1` (as salt: hydrochloride) [Cpd. GG2, 4-[(2-Amino-6-methyl-4-pyrimidinyl)amino]-N-{4-[(7-amino-4-quinolinyl)amino]phenyl}benzamide dihydrochloride]: 257 to 262 °C and 257 to 261 °C.
Same read-out and setting: next, `Cc1cc(Nc2ccc(C(=O)Nc3ccc(Nc4ccnc5ccc(N)cc45)cc3)cc2)nc(N)n1` (as salt: hydrochloride) [Cpd. GG3, 4-[(2-amino-6-methyl-4-pyrimidinyl)amino]-N-{4-[(6-amino-4-quinolinyl)amino]phenyl}benzamide dihydrochloride]: more than 300 °C; `Cc1cc(Nc2ccc(C(=O)Nc3ccc(Nc4ccnc5ccc([N+](=O)[O-])cc45)cc3)cc2)nc(N)n1` (as salt: hydrochloride) [Cpd. GG4, 4-[(2-Amino-6-methyl-4-pyrimidinyl)amino]-N-{4-[(6-nitro-4-quinolinyl)amino]phenyl}benzamide dihydrochloride]: 295 to 300 °C.
Regarding `Cc1cc(Nc2ccc(C(=O)Nc3ccc(Nc4ccnc5cc([N+](=O)[O-])ccc45)cc3)cc2)nc(N)n1` (as salt: hydrochloride) [Cpd. GG5, 4-[(2-Amino-6-methyl-4-pyrimidinyl)amino]-N-{4-[(7-nitro-4-quinolinyl)amino]phenyl}benzamide dihydrochloride], the melting point was more than 300 °C.
On the same count and under the same terms, next, `Cc1cc(Nc2ccc(NC(=O)c3ccc(Nc4ccnc5ccc([N+](=O)[O-])cc45)cc3)cc2)nc(N)n1` (as salt: hydrochloride) [Cpd. H, N-(4-(2-amino-6-methylpyrimidin-4-ylamino)phenyl)-4-(6-nitroquinolin-4-ylamino)benzamide hydrochloride]: 301 to 305 °C; `Cc1cc(Nc2ccc(C(=O)Nc3ccc(Nc4ccnc5ccc(N(C)C)cc45)cc3)cc2)nc(N)n1` (as salt: hydrochloride) [Cpd. HH, 4-[(2-amino-6-methyl-4-pyrimidinyl)amino]-N-(4-{[6-(dimethylamino)-4-quinolinyl]amino}phenyl)benzamide dihydrochloride]: more than 300 °C.
Consider `Cc1cc(Nc2ccc(NC(=O)c3ccc(Nc4ccnc5c(F)c(F)c(F)cc45)cc3)cc2)nc(N)n1` (as salt: hydrochloride) [Cpd. KK, n-[4-(2-amino-6-methylpyrimidin-4-ylamino)phenyl]-4-(6,7,8-trifluoroquinolin-4-ylamino)benzamide dihydrochloride], for which the melting point was more than 280 °C.
Turning to `C/C(=N\N=C(N)N)c1ccc(NC(=O)c2ccc(Nc3ccnc4ccc(N(C)C)cc34)cc2)cc1` (as salt: hydrochloride) [Cpd. NN, (E)-N-(4-(1-((Diaminomethylene)hydrazono)ethyl)phenyl)-4-(6-(dimethylamino)quinolin-4-ylamino)benzamide Dihydrochloride], the melting point is more than 280 °C.
Still for that read-out and setting: in the case of `C/C(=N\N=C(N)N)c1ccc(C(=O)Nc2ccc(Nc3ccnc4ccc(N(C)C)cc34)cc2)cc1` (as salt: hydrochloride) [Cpd. PP, 4-[(1E)-N-(diaminomethylene)ethanehydrazonoyl]-N-(4-{[6-(dimethylamino)-4-quinolinyl]amino}phenyl)benzamide dihydrochloride] it was more than 300 °C; in that of `Nc1cc(Nc2cccc(C(=O)Nc3ccc(Nc4ccnc5ccc([N+](=O)[O-])cc45)cc3)c2)nc(N)n1` (as salt: hydrochloride) [Cpd. RR1, 3-[(2,6-diamino-4-pyrimidinyl)amino]-N-{4-[(6-nitro-4-quinolinyl)amino]phenyl}benzamide dihydrochloride], more than 300 °C.
Regarding `Cc1cc(Nc2cccc(C(=O)Nc3ccc(Nc4ccnc5ccc([N+](=O)[O-])cc45)cc3)c2)nc(N)n1` (as salt: hydrochloride) [RR2, 3-[(2-amino-6-methyl-4-pyrimidinyl)amino]-N-{4-[(6-nitro-4-quinolinyl)amino]phenyl}benzamide dihydrochloride], the melting point was more than 300 °C.
Same read-out and setting: in the case of `Cc1cc(Nc2cccc(C(=O)Nc3ccc(Nc4ccnc5ccc(N)cc45)cc3)c2)nc(N)n1` (as salt: hydrochloride) [RR3, 3-[(2-Amino-6-methyl-4-pyrimidinyl)amino]-N-{4-[(6-amino-4-quinolinyl)amino]phenyl}benzamide dihydrochloride] it was 280 to 284 °C.
On to `Cc1cc(Nc2ccc(NC(=O)c3ccc(Nc4ccnc5ccc(Cl)cc45)cc3)cc2)nc(N)n1` [Cpd. LL, N-[4-(2-amino-6-methylpyrimidin-4-ylamino)phenyl]-4-(6-chloroquinolin-4-ylamino)benzamide], for which the melting point lay within 250 to 254 °C. Also, on DNMT1, the % DNMT1 protein level remaining at 5 µM was 70% and the % DNMT1 protein level remaining at 10 µM was determined as 15%.
The matching figures for `CN(C)c1ccc2nccc(Nc3ccc(NC(=O)c4cccc(Nc5cc[n+](C)cc5)c4)cc3)c2c1` [Cpd. OO1, 6-(dimethylamino)-4-[4-({3-[(1-methyl-4-pyridiniumyl)amino]benzoyl}amino)anilino]-quinolinium dichloride]: 170 to 173 °C, 25% and 15%.
The matching figures for `CN(C)c1ccc2nccc(Nc3ccc(NC(=O)c4ccc(Nc5cc[n+](C)cc5)cc4)cc3)c2c1` [Cpd. OO2, 6-(Dimethylamino)-4-[4-({4-[(1-methyl-4-pyridiniumyl)amino]benzoyl}amino)-anilino]quinolinium dichloride]: 156 °C (dec.), 50% and 95%.
The matching figures for `C[n+]1ccc(Nc2ccc(NC(=O)c3ccc(Nc4ccnc5cc(N)ccc45)cc3)cc2)cc1` [Cpd. W, 1-methyl-4-[4-(4-{7-aminoquinolin-4-ylamino}benzamido)-phenylamino]pyridinium dichloride]: 242 to 245 °C, 45% and 75%.
